According to PubChem BioAssay (NCI):
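Briefly, cells in 96-well plates were exposed to five compound concentrations for 48 h, and endpoints were estimated by linear interpolation. GI50 marks 50% less growth. TGI marks complete inhibition of growth.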

How the values were obtained:
Test in all cases: NCI anticancer screen, dose series, 48 h; in the data active = GI50 below about 0.43 µM; inactive = the rest
786-0 renal = tested on: 786-0 renal
A498 renal = tested on: A498 renal
A549 NSCLC = tested on: A549 NSCLC
ACHN renal = tested on: ACHN renal
BT-549 breast = tested on: BT-549 breast
CAKI-1 renal = tested on: CAKI-1 renal
CCRF-CEM leukemia = tested on: CCRF-CEM leukemia
COLO 205 colon = tested on: COLO 205 colon
DU-145 prostate = tested on: DU-145 prostate
EKVX NSCLC = tested on: EKVX NSCLC
HCC-2998 colon = tested on: HCC-2998 colon
HCT-116 colon = tested on: HCT-116 colon
HCT-15 colon = tested on: HCT-15 colon
HL-60(TB) leukemia = tested on: HL-60(TB) leukemia
HOP-62 NSCLC = tested on: HOP-62 NSCLC
HOP-92 NSCLC = tested on: HOP-92 NSCLC
HS 578T breast = tested on: HS 578T breast
HT29 colon = tested on: HT29 colon
IGROV1 ovarian = tested on: IGROV1 ovarian
K-562 leukemia = tested on: K-562 leukemia
KM12 colon = tested on: KM12 colon
LOX IMVI melanoma = tested on: LOX IMVI melanoma
M14 melanoma = tested on: M14 melanoma
MALME-3M melanoma = tested on: MALME-3M melanoma
MCF7 breast = tested on: MCF7 breast
MDA-MB-231 breast = tested on: MDA-MB-231 breast
MDA-MB-435 = tested on: MDA-MB-435
MOLT-4 leukemia = tested on: MOLT-4 leukemia
NCI-H226 lung = tested on: NCI-H226 lung
NCI-H23 lung = tested on: NCI-H23 lung
NCI-H460 lung = tested on: NCI-H460 lung
NCI-H522 lung = tested on: NCI-H522 lung
NCI/ADR-RES ovarian = tested on: NCI/ADR-RES ovarian
OVCAR-3 ovarian = tested on: OVCAR-3 ovarian
OVCAR-4 ovarian = tested on: OVCAR-4 ovarian
OVCAR-5 ovarian = tested on: OVCAR-5 ovarian
OVCAR-8 ovarian = tested on: OVCAR-8 ovarian
PC-3 prostate = tested on: PC-3 prostate
RPMI-8226 leukemia = tested on: RPMI-8226 leukemia
RXF 393 renal = tested on: RXF 393 renal
SF-268 CNS = tested on: SF-268 CNS
SF-295 CNS = tested on: SF-295 CNS
SK-MEL-28 melanoma = tested on: SK-MEL-28 melanoma
SK-MEL-5 melanoma = tested on: SK-MEL-5 melanoma
SK-OV-3 ovarian = tested on: SK-OV-3 ovarian
SN12C renal = tested on: SN12C renal
SNB-19 CNS = tested on: SNB-19 CNS
SNB-75 CNS = tested on: SNB-75 CNS
SR leukemia = tested on: SR leukemia
SW-620 colon = tested on: SW-620 colon
T-47D breast = tested on: T-47D breast
TK-10 renal = tested on: TK-10 renal
U251 CNS = tested on: U251 CNS
UACC-257 melanoma = tested on: UACC-257 melanoma
UACC-62 melanoma = tested on: UACC-62 melanoma
UO-31 renal = tested on: UO-31 renal

COc1ccc([C@@H]2[C@@H](O)C(=O)N2c2cc(OC)c(OC)c(OC)c2)cc1F
110 nM: TGI (HT29 colon)
inactive: GI50 (A498 renal) 22400 nM | GI50 (EKVX NSCLC) > 100000 nM | GI50 (OVCAR-4 ovarian) 686 nM | GI50 (SK-MEL-28 melanoma) 792 nM | GI50 (T-47D breast) > 55200 nM | GI50 (TK-10 renal) > 100000 nM
> 84600 nM: TGI (SK-OV-3 ovarian)
active: GI50 (786-0 renal) 41.9 nM | GI50 (A549 NSCLC) 44.8 nM | GI50 (ACHN renal) 56.8 nM | GI50 (BT-549 breast) 29.4 nM | GI50 (CAKI-1 renal) 46.3 nM | GI50 (CCRF-CEM leukemia) 42.6 nM | GI50 (COLO 205 colon) 30.3 nM | GI50 (DU-145 prostate) 39.5 nM | GI50 (HCC-2998 colon) 48.5 nM | GI50 (HCT-116 colon) 33.9 nM | GI50 (HCT-15 colon) 35.9 nM | GI50 (HL-60(TB) leukemia) 32.9 nM | GI50 (HOP-62 NSCLC) 58.2 nM | GI50 (HS 578T breast) 57.6 nM | GI50 (HT29 colon) 30.5 nM | GI50 (IGROV1 ovarian) 51.5 nM | GI50 (K-562 leukemia) 38.1 nM | GI50 (KM12 colon) 36.8 nM | GI50 (LOX IMVI melanoma) 38.1 nM | GI50 (M14 melanoma) 35 nM | GI50 (MALME-3M melanoma) 79.1 nM | GI50 (MCF7 breast) 35.2 nM | GI50 (MDA-MB-231 breast) 49.1 nM | GI50 (MDA-MB-435) 23.1 nM | GI50 (MOLT-4 leukemia) 45.8 nM | GI50 (NCI-H226 lung) 34.5 nM | GI50 (NCI-H23 lung) 52.5 nM | GI50 (NCI-H460 lung) 34.4 nM | GI50 (NCI-H522 lung) 19.9 nM | GI50 (NCI/ADR-RES ovarian) 56.2 nM | GI50 (OVCAR-3 ovarian) 29.9 nM | GI50 (OVCAR-5 ovarian) 49.6 nM | GI50 (OVCAR-8 ovarian) 40.7 nM | GI50 (PC-3 prostate) 54.6 nM | GI50 (RPMI-8226 leukemia) 41.5 nM | GI50 (RXF 393 renal) 30.5 nM | GI50 (SF-268 CNS) 98.4 nM | GI50 (SF-295 CNS) 36.2 nM | GI50 (SK-MEL-5 melanoma) 35.1 nM | GI50 (SK-OV-3 ovarian) 55.9 nM | GI50 (SN12C renal) 50.4 nM | GI50 (SNB-19 CNS) 79.9 nM | GI50 (SNB-75 CNS) 45.6 nM | GI50 (SR leukemia) 33.4 nM | GI50 (SW-620 colon) 45.9 nM | GI50 (U251 CNS) 36 nM | GI50 (UACC-62 melanoma) 48.7 nM | GI50 (UO-31 renal) 72.8 nM
207 nM: TGI (HL-60(TB) leukemia)
175 nM: TGI (SK-MEL-5 melanoma)
203 nM: TGI (BT-549 breast)
93.3 nM: TGI (COLO 205 colon)
432 nM: TGI (NCI-H226 lung)
> 21800 nM: TGI (RPMI-8226 leukemia)
114 nM: TGI (OVCAR-3 ovarian)
> 100000 nM: TGI (786-0 renal) | TGI (A498 renal) | TGI (A549 NSCLC) | TGI (ACHN renal) | TGI (CCRF-CEM leukemia) | TGI (DU-145 prostate) | TGI (EKVX NSCLC) | TGI (HCC-2998 colon) | TGI (HCT-116 colon) | TGI (HCT-15 colon) | TGI (HOP-62 NSCLC) | TGI (HOP-92 NSCLC) | TGI (HS 578T breast) | TGI (IGROV1 ovarian) | TGI (K-562 leukemia) | TGI (KM12 colon) | TGI (LOX IMVI melanoma) | TGI (M14 melanoma) | TGI (MALME-3M melanoma) | TGI (MCF7 breast) | TGI (MDA-MB-231 breast) | TGI (MOLT-4 leukemia) | TGI (NCI-H23 lung) | TGI (NCI-H460 lung) | TGI (NCI/ADR-RES ovarian) | TGI (OVCAR-4 ovarian) | TGI (OVCAR-5 ovarian) | TGI (OVCAR-8 ovarian) | TGI (PC-3 prostate) | TGI (SF-268 CNS) | TGI (SF-295 CNS) | TGI (SK-MEL-28 melanoma) | TGI (SN12C renal) | TGI (SNB-19 CNS) | TGI (SNB-75 CNS) | TGI (SR leukemia) | TGI (SW-620 colon) | TGI (T-47D breast) | TGI (TK-10 renal) | TGI (U251 CNS) | TGI (UACC-257 melanoma) | TGI (UACC-62 melanoma) | TGI (UO-31 renal)
> 61600 nM: TGI (CAKI-1 renal)
53.7 nM: TGI (NCI-H522 lung)
57.5 nM: TGI (MDA-MB-435)
